From patent publication US8119656B2, “Inhibitors of the influenza virus non-structural 1 protein” (The Board of Regents of the University of Texas System, priority 2007, dated 2012)

Columns and labels:
influenza virus (WSN) = assay type: cell-based
influenza virus = experiment: Inhibition of virus killing in human bronchial epithelial cells (infection assay); assay type: cell-based; settings: purity and concentration verified
From the text: FIG. 7. […] Analogs in the library are related structures which provide structure-activity information. The z score is the compound value minus the experimental mean value divided by the standard deviation of the experimental population.
It is important to note, that with the exception of one compound (8 in FIG. 7), the values shown are from the screening experiments using compounds for which only estimated concentrations and solubilities were available. Inhibitor 8 has been purchased in large quantities from Chemical Diversity Laboratories (San Diego, Calif.) and its purity and concentration verified prior to obtaining the data on inhibition of virus killing in human bronchial epithelial cells. […] It is possible that some of the other compounds will show improvements in potency once pure stocks of known concentration are obtained (see FIG. 7). […] From these 71 inhibitors, 8 different compound families were chosen for further analyses (see FIG. 7).

NS1 protein = target: T1, NS1 protein (Influenza A virus, UniProt P03496); assay type: cell-based
T1 construct: expressed in transfected cells; host or cells: 293T cells
T1 sequence (P03496 whole entry): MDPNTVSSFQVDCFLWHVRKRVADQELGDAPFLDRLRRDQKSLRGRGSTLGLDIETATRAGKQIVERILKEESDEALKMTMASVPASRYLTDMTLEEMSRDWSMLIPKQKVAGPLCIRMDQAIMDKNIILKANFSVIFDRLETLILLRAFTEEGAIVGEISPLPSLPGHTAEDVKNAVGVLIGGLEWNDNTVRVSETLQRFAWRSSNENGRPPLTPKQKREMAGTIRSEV

firefly luciferase = assay type: cell-based
[1] = test system: mRNA export block induced by influenza virus infection and mediated by NS1; assay type: cell-based, influenza virus (WSN)

SMILES: O=C(O)CCN1C(=O)c2cccc3c([N+](=O)[O-])ccc(c23)C1=O [Compound 8.2]
- WSN HA titer 24H 24 hr (influenza virus (WSN)): 0.25
- WSN HA titer 24H 36 hr (influenza virus (WSN)): 0.50

SMILES: O=C(O)CCCCCN1C(=O)c2cccc3cccc(c23)C1=O [Compound 8.1]
- WSN HA titer 24H 24 hr (influenza virus (WSN)): 1.00
- WSN HA titer 24H 36 hr (influenza virus (WSN)): 0.50

SMILES: O=C(O)CCCN1C(=O)c2cccc3c([N+](=O)[O-])ccc(c23)C1=O [Compound 8.0]
- Potency in the infection assay (influenza virus): most potent in the infection assay
- WSN HA titer 24H 24 hr (influenza virus (WSN)): 0.50
- WSN HA titer 24H 36 hr (influenza virus (WSN)): 0.50
- Activity in the original screen (NS1 protein): not one of the most active compounds

SMILES: O=C(O)CCCCCN1C(=O)c2cccc3c([N+](=O)[O-])ccc(c23)C1=O [Compound 8.10]
- WSN HA titer 24H 24 hr (influenza virus (WSN)): 0.13
- WSN HA titer 24H 36 hr (influenza virus (WSN)): 0.19

SMILES: O=C(O)CCN1C(=O)c2cccc3cccc(c23)C1=O [Compound 8.16]
- WSN HA titer 24H 24 hr (influenza virus (WSN)): 1.00
- WSN HA titer 24H 36 hr (influenza virus (WSN)): 0.50

SMILES: O=C(O)CCCCCN1C(=O)c2cccc3c(N4CCCCC4)ccc(c23)C1=O [Compound 8.3]
- Inhibition of firefly luciferase expression (firefly luciferase): inhibitor of firefly luciferase expression
- Inhibition of virus growth compared with compound 8 (influenza virus (WSN)): more inhibitory of virus growth
- Potency for inhibiting virus growth among analogs of compound 8 (influenza virus (WSN)): most potent compound for inhibiting virus growth
- WSN HA titer 24H 24 hr (influenza virus (WSN)): 0.13
- WSN HA titer 24H 36 hr (influenza virus (WSN)): 0.13
- Reversal of mRNA export block ([1]; MDCK cells infected with WSN, FIG. 10 (10 μM, MOI 0.01, 48 h in FIG. 10A)): significantly reverts the mRNA export block
- Reversal of mRNA export blockage ([1]; compound at 50 μM, WSN MOI 1, 12 h (FIG. 10B)): significant reversal of mRNA export blockage
- Inhibition of NS1 protein compared with compound 8 (NS1 protein): more inhibitory of NS1 protein
- Score in the luciferase dependent assay (NS1 protein): did not score
- Inhibition of Renilla luciferase expression (Renilla luciferase): no effect

SMILES: CCN1C(=O)c2cccc3c([N+](=O)[O-])ccc(c23)C1=O [Compound 8.6]
- Inhibition of virus growth compared with compound 8 (influenza virus (WSN)): more inhibitory of virus growth
- WSN HA titer 24H 24 hr (influenza virus (WSN)): 0.13
- WSN HA titer 24H 36 hr (influenza virus (WSN)): 0.25
- Inhibition of NS1 protein compared with compound 8 (NS1 protein): more inhibitory of NS1 protein

SMILES: O=C(O)CCCN1C(=O)c2cccc3cc([N+](=O)[O-])cc(c23)C1=O [Compound 8.9]
- WSN HA titer 24H 24 hr (influenza virus (WSN)): 0.50
- WSN HA titer 24H 36 hr (influenza virus (WSN)): 0.50
